System: IgE antibodies from patients
Assay: Wheat epitope mapping (2): overlapping 10-amino-acid peptide fragments shifted by one amino acid;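 as to Rank of partial sequence as epitope binding to IgE antibody: key = sequence deemed particularly important within the common 15-residue sequence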;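 as to epitope sequence binding to IgE antibody, rank (Key/Preferably/More preferably): key of grades: preferably = shorter partial sequence still acting as epitope; more preferably = sequence improving IgE binding; key = particularly important sequence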
Assay type: binding, human
Method in brief: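 Cellulose-bound 10-mer peptides offset by one residue were probed with patient serum IgE and detected by chemiluminescence. Secondary-antibody-only signals were subtracted per peptide. Residual binding was expressed as % of the parent overlapping peptide, scored as none (<30%), poor (30–<50%), somewhat poor (50–<70%) or retained (≥70%).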

[1] = serum of patient P34 (WDEIA), sequence without X
[2] = serum of patient G1 (adult, general immediate type allergy to wheat), sequence without X
[3] = serum of patient P7 (WDEIA), sequence without X
[4] = serum of patient P28 (WDEIA), sequence without X
[5] = serum of patient G7 (adult, general immediate type allergy to wheat), sequence without X
[6] = serum of patient P35 (WDEIA), sequence without X
[7] = serum of patient P55 (child, general immediate type allergy to wheat), sequence without X
[8] = serum of patient G7 (adult, general immediate type allergy to wheat)
[9] = serum of patient P8 (WDEIA), partial sequence
[10] = serum of patient P50 (child, general immediate type allergy to wheat), sequence without X
[11] = serum of patient P29 (WDEIA), partial sequence
[12] = serum of patient P12 (WDEIA), sequence without X

1351 (INVEN; REGION 1..5: note = epitope) [compound 1351]
Epitope sequence binding to IgE antibody, rank of the sequence [1]: Preferably

1660 (YNPDK; REGION 1..5: note = epitope) [compound 1660]
Rank of partial sequence as epitope binding to IgE antibody [2]: Key

1820 (PKFLK; REGION 1..5: note = epitope) [compound 1820]
epitope sequence binding to IgE antibody, rank (Key/Preferably/More preferably) (serum of patient P33 (WDEIA)): Key

1877 (TLQR; REGION 1..4: note = epitope) [compound 1877]
epitope sequence binding to IgE antibody, rank (Key/Preferably/More preferably) (serum of patient P31 (WDEIA)): Key

2234 (RNYR; REGION 1..4: note = epitope) [compound 2234]
Epitope sequence binding to IgE antibody, rank of the sequence (Key/Preferably/More preferably) (serum of patient P29 (WDEIA), sequence without X): Key

1446 (PQQPISQQQ; REGION 1..9: note = epitope) [compound 1446]
Rank of partial sequence as epitope binding to IgE antibody (serum of patient P21 (WDEIA), sequence without X): Preferably

1944 (QFPGQQQ; REGION 1..7: note = epitope) [compound 1944]
epitope sequence binding to IgE antibody, rank (Key/Preferably/More preferably) (serum of patient P22 (WDEIA)): More preferably

1216 (PQQPP; REGION 1..5: note = epitope) [compound 1216]
Epitope sequence binding to IgE antibody, rank of the sequence [3]: Preferably

1420 (SQQQA; REGION 1..5: note = epitope) [compound 1420]
Epitope sequence binding to IgE antibody, rank of the sequence (serum of patient P9 (WDEIA), sequence without X): Key

1646 (YNPDKVPF; REGION 1..8: note = epitope) [compound 1646]
Rank of partial sequence as epitope binding to IgE antibody (serum of patient P36 (WDEIA), sequence without X): Preferably

2380 (DRCAYVTEIV; REGION 1..10: note = epitope) [compound 2380]
Epitope sequence binding to IgE antibody, rank of the sequence (Key/Preferably/More preferably) [4]: Key

1505 (SQQQA; REGION 1..5: note = epitope) [compound 1505]
Rank of partial sequence as epitope binding to IgE antibody [5]: Key

1614 (YNPD; REGION 1..4: note = epitope) [compound 1614]
Rank of partial sequence as epitope binding to IgE antibody (serum of patient P16 (WDEIA), sequence without X): Key

1353 (NVEN; REGION 1..4: note = epitope) [compound 1353]
Epitope sequence binding to IgE antibody, rank of the sequence [6]: Key

2259 (RNYRV; REGION 1..5: note = epitope) [compound 2259]
Epitope sequence binding to IgE antibody, rank of the sequence (Key/Preferably/More preferably) [7]: Key

1902 (QQFPGQQ; REGION 1..7: note = epitope) [compound 1902]
epitope sequence binding to IgE antibody, rank (Key/Preferably/More preferably) (serum of patient P3 (WDEIA)): Key

2738 (VPVGR; REGION 1..5: note = epitope) [compound 2738]
Epitope sequence binding to IgE antibody, rank of the sequence (serum of patient P30 (WDEIA), partial sequence): Key

2441 (KAWSGK; REGION 1..6: note = epitope) [compound 2441]
Epitope sequence binding to IgE antibody, rank of the sequence (Key/Preferably/More preferably) [4]: Key

1785 (LKKVGYNP; REGION 1..8: note = epitope) [compound 1785]
epitope sequence binding to IgE antibody, rank (Key/Preferably/More preferably) [8]: Key

1235 (PQQPP; REGION 1..5: note = epitope) [compound 1235]
Epitope sequence binding to IgE antibody, rank of the sequence (serum of patient P17 (WDEIA), sequence without X): Key

2676 (YKGPTL; REGION 1..6: note = epitope) [compound 2676]
Epitope sequence binding to IgE antibody, rank of the sequence [9]: Key

2514 (SFQPSQLNPQ; REGION 1..10: note = epitope) [compound 2514]
Epitope sequence binding to IgE antibody, rank of the sequence (serum of patient P51 (child, general immediate type allergy to wheat), partial sequence): Preferably

1626 (YNPD; REGION 1..4: note = epitope) [compound 1626]
Rank of partial sequence as epitope binding to IgE antibody (serum of patient P26 (WDEIA), sequence without X): Key

2297 (ERFEK; REGION 1..5: note = epitope) [compound 2297]
Epitope sequence binding to IgE antibody, rank of the sequence (Key/Preferably/More preferably/Further preferably) [10]: Key

2250 (SRLLRGIRN; REGION 1..9: note = epitope) [compound 2250]
Epitope sequence binding to IgE antibody, rank of the sequence (Key/Preferably/More preferably) (serum of patient P52 (child, general immediate type allergy to wheat), sequence without X): Preferably

1568 (PFPQTQ; REGION 1..6: note = epitope) [compound 1568]
Rank of partial sequence as epitope binding to IgE antibody (serum of patient P3 (WDEIA), sequence without X): Key

1941 (QQFPGQQQ; REGION 1..8: note = epitope) [compound 1941]
epitope sequence binding to IgE antibody, rank (Key/Preferably/More preferably) (serum of patient P21 (WDEIA)): More preferably

2688 (YKGPTL; REGION 1..6: note = epitope) [compound 2688]
Epitope sequence binding to IgE antibody, rank of the sequence [11]: Key

1425 (YLQPQQPIS; REGION 1..9: note = epitope) [compound 1425]
Epitope sequence binding to IgE antibody, rank of the sequence [12]: Preferably

1650 (YNPDKVPF; REGION 1..8: note = epitope) [compound 1650]
Rank of partial sequence as epitope binding to IgE antibody [10]: Preferably

1676 (KVPFVPISG; REGION 1..9: note = epitope) [compound 1676]
Rank of partial sequence as epitope binding to IgE antibody (serum of patient G5 (adult, general immediate type allergy to wheat), sequence without X): Preferably

1639 (YNPDKV; REGION 1..6: note = epitope) [compound 1639]
Rank of partial sequence as epitope binding to IgE antibody [1]: Key

1723 (KEAANF; REGION 1..6: note = epitope) [compound 1723]
epitope sequence binding to IgE antibody, rank (Key/Preferably/More preferably) (serum of patient P50 (child, general immediate type allergy to wheat)): Key

1401 (KPWQQQ; REGION 1..6: note = epitope) [compound 1401]
Epitope sequence binding to IgE antibody, rank of the sequence [6]: Preferably

2619 (LASLSK; REGION 1..6: note = epitope) [compound 2619]
Epitope sequence binding to IgE antibody, rank of the sequence (serum of patient P32 (WDEIA), partial sequence): Key

2300 (DKRVIERFEK; REGION 1..10: note = epitope) [compound 2300]
Epitope sequence binding to IgE antibody, rank of the sequence (Key/Preferably/More preferably) [2]: Key

2500 (QVSF; REGION 1..4: note = epitope) [compound 2500]
Epitope sequence binding to IgE antibody, rank of the sequence [9]: Key

1891 (YTVRTL; REGION 1..6: note = epitope) [compound 1891]
epitope sequence binding to IgE antibody, rank (Key/Preferably/More preferably) [8]: Key

1948 (QVPLVQQQ; REGION 1..8: note = epitope) [compound 1948]
epitope sequence binding to IgE antibody, rank (Key/Preferably/More preferably) (serum of patient P24 (WDEIA)): Preferably

1824 (LPKFLK; REGION 1..6: note = epitope) [compound 1824]
epitope sequence binding to IgE antibody, rank (Key/Preferably/More preferably) (serum of patient P36 (WDEIA)): Key

1694 (EAANFTS; REGION 1..7: note = epitope) [compound 1694]
Rank of partial sequence as epitope binding to IgE antibody (serum of patient P19 (WDEIA), sequence without X): Key

1506 (YLQPQQP; REGION 1..7: note = epitope) [compound 1506]
Rank of partial sequence as epitope binding to IgE antibody (serum of patient G9 (adult, general immediate type allergy to wheat), sequence without X): Preferably

1848 (YTVRTLQRT; REGION 1..9: note = epitope) [compound 1848]
epitope sequence binding to IgE antibody, rank (Key/Preferably/More preferably) (serum of patient P16 (WDEIA)): More preferably

1296 (ILPRSDCKV; REGION 1..9: note = epitope) [compound 1296]
Epitope sequence binding to IgE antibody, rank of the sequence [5]: Key

2258 (LRGIRNYRVA; REGION 1..10: note = epitope) [compound 2258]
Epitope sequence binding to IgE antibody, rank of the sequence (Key/Preferably/More preferably) [7]: Preferably

1634 (YNPDKVPF; REGION 1..8: note = epitope) [compound 1634]
Rank of partial sequence as epitope binding to IgE antibody (serum of patient P32 (WDEIA), sequence without X): Preferably

2295 (LGGIDKRV; REGION 1..8: note = epitope) [compound 2295]
Epitope sequence binding to IgE antibody, rank of the sequence (Key/Preferably/More preferably/Further preferably) [10]: Preferably

1375 (PWQQQPL; REGION 1..7: note = epitope) [compound 1375]
Epitope sequence binding to IgE antibody, rank of the sequence [3]: Key

1527 (QVPLVQQQQ; REGION 1..9: note = epitope) [compound 1527]
Rank of partial sequence as epitope binding to IgE antibody [12]: More preferably

2578 (YQLVQQL; REGION 1..7: note = epitope) [compound 2578]
Epitope sequence binding to IgE antibody, rank of the sequence [11]: Key

— patent US20240393292A1, “ALLERGY ANTIGEN AND EPITOPE THEREOF” (HOYU CO., LTD., priority 2019, published 2024)
